Reference: patent US20230277508A1, “USE OF COMPOUND AS CYP2E1 INHIBITOR” (SHANGHAI LING XI BIOTECHNOLOGY DEVELOPMENT CO., LTD., priority 2020, published 2023)

What was measured:
[1] = system: ovarian cancer ID8 cell line abdominal transplanted tumor; test: Mouse ovarian cancer abdominal transplanted tumor model (ID8); assay type: in vivo, C57/6 mouse; settings: SMI0 30 mg/kg ig daily, 30-day modeling
Protocol: Experimental method: A female C57/6 mouse ovarian cancer abdominal transplanted tumor model was constructed with an ovarian cancer murine ID8 cell line at a cell concentration of 2.5×10^6. A model group and an SMI0 intervention group were set for the experiment. The intervention group was intragastrically administered with the SMI0 compound at 30 mg/kg every day from three days before modeling to the end of the 30-day modeling (model group, n=10 mice; and SMI0 compound (30 mg/kg) group, n=11 mice). At the end of the experiment, blood was collected from the orbit, a body weight was measured, then the mice each were sacrificed, and ovary tissues were collected. Ovary tissue specimens were subjected to HE staining, and then the ovary tissue lesion and tumorigenesis of mice in each group were observed.

[2] = system: LPS-induced pulmonary fibrosis in mice; test: LPS-induced mouse pulmonary fibrosis model; assay type: in vivo, C57BL/6N mouse
Protocol: Experimental method: A C57BL/6N mouse pulmonary fibrosis model was established through intratracheal instillation with 8 mg/kg LPS. An SMI0 intervention group was divided into a low-dose group and a high-dose group, which were intragastrically administered with the compound SMI0 respectively at 30 mg/kg and 90 mg/kg every day from three days before modeling to the end of the 28-d modeling (control group, n=8; model group, n=8; and SMI0 compound high-dose group, n=8). At the end of the experiment, a body weight of mice in each group was recorded, blood was collected from the orbit, the mice were sacrificed, and lung tissues were collected and weighed. The left lungs were fixed in 4% formalin and subjected to HE and Masson staining, and the lung tissues were subjected to fibrosis grading and fibrosis and histological scoring to reflect a severity of pulmonary fibrosis.
Experimental method: An ammonium molybdate method and a microplate method were used to treat a mouse lung tissue homogenate, and changes of oxidative stress indexes CAT and GSH in the lung tissue of mice in each group were detected. Expression levels of […] and α-SMA in the mouse lung tissue were evaluated through immunohistochemical staining, and a positive area percentage was counted by Image-Pro Plus software. Expression levels of the epithelial cell marker E-cadherin, the apoptosis-associated protein Bax, and the anti-apoptotic protein Bcl-2 were detected by WB.

[3] = system: CT26 cell lung metastasis; test: Lung metastasis model, tail vein injection of CRC cell CT26; assay type: in vivo, Balb/C mouse; settings: SMI0 30 mg/kg, 14 days
other CYP enzymes = test: Determination of selectivity of a CYP2E1 inhibitor: other CYP enzymes; assay type: biochemical; settings: mixed human liver microsome, probe substrates
Excerpt: With a mixed liver microsome of a healthy individual as a research object, probe drugs CYP1A2, CYP2A6, CYP2B6, CYP2C8, CYP2C9, CYP2C19, CYP2D6, CYP2E1, and CYP3A4 were selected to determine an in vitro inhibitory effect of an inhibitor to be tested on the metabolism of the probe drugs CYP1A2, CYP2A6, CYP2B6, CYP2C8, CYP2C9, CYP2C19, CYP2D6, CYP2E1, and CYP3A4 for the mixed liver microsome of the healthy human, and the selectivity of the inhibitor to be tested for a CYP2E1 inhibitory effect was evaluated.
The CYP1A2 probe is 6.25 μM to 800 μM phenacetin or 27.5 μM to 12,520 μM caffeine; • the CYP2A6 probe is 0.156 μM to 20 μM coumarin or 12.5 μM to 2,000 μM nicotine; • the CYP2B6 probe is 7.8 μM to 500 μM bupropion or 0.25 mM to 30 mM cyclophosphamide; • the CYP2C8 probe is 2.5 μM to 80 μM paclitaxel or 0.125 μM to 128 μM amodiaquine; • the CYP2C9 probe is 31.25 μM to 2,000 μM tolbutamide or 0.1 μM to 200 μM diclofenac; • the CYP2C19 probe is 3.9 μM to 500 μM omeprazole or 1.95 μM to 1,000 μM mephenytoin; • the CYP2D6 probe is 0.625 μM to 96 μM dextromethorphan or 0.0195 μM to 80 μM propafenone; and • the CYP3A4 probe is 0.39 μM to 50 μM midazolam or 1.98 μM to 1,000 μM testosterone.
An incubation system in a total volume of 100 μL was adopted, including a substrate, an inhibitor of different concentrations, a liver microsomal protein, and PBS. […]

[4] = system: liver fibrosis in mice induced by a high-fat diet; test: Mouse liver fibrosis model induced by a high-fat diet; assay type: in vivo, C57/6J mice; settings: SMI0 30 and 150 mg/kg ig daily, 26 weeks, vs model group
Protocol: Experimental method: Male C57/6J mice were fed with a high-fructose, high-fat, and high-cholesterol feed to prepare mouse liver steatosis and hepatitis models, and a control group was fed with a low-fat and low-sugar control feed. An SMI0 intervention group was divided into a low-dose intervention group and a high-dose intervention group, which were intragastrically administered with the compound SMI0 at 30 mg/kg and 150 mg/kg every day from the beginning of modeling to the 26nd week of modeling. At the end of the 26-week experiment, blood was collected from the orbit, a body weight was measured, and then the mice each were sacrificed. The weight and appearance of a liver (color, texture, and presence or absence of nodules of the liver) were recorded. Some liver specimens were subjected to HE staining and then observed, and a steatosis score of mice in each group was recorded; and Masson staining was conducted to evaluate a liver fibrosis status of mice, and an oil red O staining area percentage was determined (model group, n=10 mice; SMI0 compound low-dose group, n=10 […]; and SMI0 compound high-dose group, n=10 […]).

[5] = SMI0 intervention group vs model group, P<0.01

## CC(=O)c1scnc1C [SMI0]
[1]
  inhibition rate for the ascites weight: 83.78%
[1]; vs model group
  ascites volume: significantly reduced
  body weight of mice: significantly reduced
[1]; as high as
  inhibition rate for tumor proliferation of the greater momentum: 58.70%
[2]; SMI0 intervention group (30, 90 mg/kg ig daily, 28 d) vs model group
  lung index: significantly reduced
[2]; [5]
  immunostaining-positive area percentage of TGF-β 1: significantly reduced
  immunostaining-positive area percentage of α-SMA: significantly reduced
  oxidative stress index CAT level in lung tissue: significantly increased
[2]; SMI0 intervention group, 28 d
  pathological inflammatory cell infiltration: no obvious pathological inflammatory cell infiltration
[2]; WB, SMI0 intervention group vs model group, P<0.001
  Bcl-2 level: significantly increased
[2]; WB, SMI0 intervention group vs model group, P<0.01
  Bax level: significantly reduced
[2]; WB, SMI0 intervention group vs model group, P<0.05
  epithelial cell marker E-cadherin level: significantly increased
[3]; vs model group
  lung weight: significantly reduced
  number of nodules: significantly reduced
[3]; as high as
  tumor proliferation inhibition rate: 66.7%
Other CYP enzymes
  inhibitory effect for other CYP enzymes: no significant inhibitory effect
[4]
  liver fibrosis level in mice induced by a high-fat diet: significantly reduce
